Reference: patent US20050070554A1, “Substituted heterocyclic compounds and methods of use” (Amgen Inc., priority 2003, published 2005)
Read-outs that look alike come from different tables or passages of the source.

Target: T1, LCK (Homo sapiens, UniProt P06239)
T1 construct: LCK KD GST (225-509); GST
Experiment: LCK-Homogeneous Time Resolved Fluorescent (HTRF) Kinase Assay
Assay type: biochemical
Method: LCK-Homogeneous Time Resolved Fluorescent (HTRF) Kinase Assay:
The LCK HTRF assay begins with LCK in the presence of ATP phosphorylating the biotinylated peptide Gastrin. The reaction incubates for 90 min. To quench the assay detection reagents are added which both stop the reaction by diluting out the enzyme and chelating the metals due to the presence of EDTA. Once the detection reagents are added the assay incubates for 30 min to allow for equilibration of the detection reagents.
Buffer conditions are as follows: 50 mM HEPES pH 7.5, 50 mM NaCl, 20 mM MgCl, 5 mM MnCl, 2 mM DTT, 0.05% BSA.
The assay is quenched and stopped with 160 μL of detection reagent. Detection reagents are as follows: Buffer made of 50 mM Tris, pH 7.5, 100 mM NaCl, 3 mM EDTA, 0.05% BSA, 0.1% Tween20.
The assay plate is read in either a Discovery or a RubyStar.

[1] = read-out: activity in the LCK-HTRF Kinase Assay

T1 sequence (P06239 225-509): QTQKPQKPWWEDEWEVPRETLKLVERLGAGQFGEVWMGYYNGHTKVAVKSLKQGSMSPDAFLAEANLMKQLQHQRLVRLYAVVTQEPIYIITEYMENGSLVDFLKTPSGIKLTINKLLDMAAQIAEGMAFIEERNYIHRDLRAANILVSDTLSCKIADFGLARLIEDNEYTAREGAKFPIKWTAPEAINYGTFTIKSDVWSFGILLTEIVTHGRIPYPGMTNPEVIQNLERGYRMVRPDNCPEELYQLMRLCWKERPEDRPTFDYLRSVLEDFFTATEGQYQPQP

Compound: Cc1cccc(C)c1-n1c(=O)c2cnc(Nc3ccc(OCCN4CCOCC4)cc3)nc2n2c3ccccc3nc12 [No. 29, 6-(2,6-dimethylphenyl)-2-((4-((2-(4-morpholinyl)-ethyl)oxy)phenyl)amino)pyrimido[5′,4′:5,6]-pyrimido[1,2-a]benzimidazol-5(6H)-one]
- IC50 [1]: < 1000 nM

Compound: COc1cc(Nc2ncc3c(=O)n(-c4c(C)cccc4C)c4nc5ccccc5n4c3n2)cc(OC)c1OCCN1CCOCC1 [No. 30, 2-((3,5-bis(methyloxy)-4-((2-(4-morpholinyl)ethyl)-oxy)phenyl)amino)-6-(2,6-dimethylphenyl)-pyrimido[5′,4′:5,6]pyrimido[1,2-a]benzimidazol-5(6H)-one]
- IC50 [1]: < 1000 nM

Compound: Cc1cccc(C)c1-n1c(=O)c2cnc(Nc3ccc(N4CCN(C(C)C)CC4)cc3)nc2n2c3ccccc3nc12 [No. 31, 6-(2,6-dimethylphenyl)-2-((4-(4-(1-methylethyl)-1-piperazinyl)phenyl)amino)pyrimido[5′,4′:5,6]-pyrimido[1,2-a]benzimidazol-5(6H)-one]
- IC50 [1]: < 1000 nM

Compound: Cc1cccc(C)c1-n1c(=O)c2cnc(Nc3ccc(OCCCN4CCCCC4)cc3)nc2n2c3ccccc3nc12 [No. 32, 6-(2,6-dimethylphenyl)-2-((4-((3-(1-piperidinyl)-propyl)oxy)phenyl)amino)pyrimido[5′,4′:5,6]-pyrimido[1,2-a]benzimidazol-5(6H)-one]
- IC50: < 1000 nM

Compound: CNCCOc1ccc(Nc2ncc3c(=O)n(-c4c(C)cccc4C)c4nc5ccccc5n4c3n2)cc1 [No. 33, 6-(2,6-dimethylphenyl)-2-((4-((2-(methylamino)-ethyl)oxy)phenyl)amino)pyrimido[5′,4′:5,6]-pyrimido[1,2-a]benzimidazol-5(6H)-one]
- IC50 [1]: < 1000 nM

Compound: Cc1cccc(C)c1-n1c(=O)c2cnc(Nc3ccc(OCCN4CCN(C)CC4)cc3)nc2n2c3ccccc3nc12 [No. 34, 6-(2,6-dimethylphenyl)-2-((4-((2-(4-methyl-1-piperazinyl)ethyl)oxy)phenyl)amino)-pyrimido[5′,4′:5,6]pyrimido[1,2-a]benzimidazol-5(6H)-one]
- IC50 [1]: < 1000 nM

Compound: Cc1cccc(C)c1-n1c(=O)c2cnc(Nc3ccc(OCCN4CCCCC4)c(F)c3)nc2n2c3ccccc3nc12 [No. 35, 6-(2,6-dimethylphenyl)-2-((3-fluoro-4-((2-(1-piperidinyl)ethyl)oxy)phenyl)amino)-pyrimido[5′,4′:5,6]pyrimido[1,2-a]benzimidazol-5(6H)-one]
- IC50 [1]: < 1000 nM

Compound: Cc1cccc(C)c1-n1c(=O)c2cnc(Nc3cccc(OCCCN4CCCCC4)c3)nc2n2c3ccccc3nc12 [No. 36, 6-(2,6-dimethylphenyl)-2-((3-((3-(1-piperidinyl)-propyl)oxy)phenyl)amino)pyrimido[5′,4′:5,6]-pyrimido[1,2-a]benzimidazol-5(6H)-one]
- IC50 [1]: < 1000 nM

Compound: COc1cc(Nc2ncc3c(=O)n(-c4c(C)cccc4C)c4nc5ccccc5n4c3n2)ccc1N1CCNCC1 [No. 37, 6-(2,6-dimethylphenyl)-2-((3-(methyloxy)-4-(1-piperazinyl)phenyl)amino)pyrimido[5′,4′:5,6]-pyrimido[1,2-a]benzimidazol-5(6H)-one]
- IC50 [1]: < 1000 nM

Compound: Cc1cccc(C)c1-n1c(=O)c2cnc(Nc3ccc(OCCN4CCN(C)CC4)c(F)c3)nc2n2c3ccccc3nc12 [No. 38, 6-(2,6-dimethylphenyl)-2-((3-fluoro-4-((2-(4-methyl-1-piperazinyl)ethyl)oxy)phenyl)amino)-pyrimido[5′,4′:5,6]pyrimido[1,2-a]benzimidazol-5(6H)-one]
- IC50: < 1000 nM

Compound: Cc1cccc(C)c1-n1c(=O)c2cnc(Nc3cccc(OCCCN4CCN(C)CC4)c3)nc2n2c3ccccc3nc12 [No. 39, 6-(2,6-dimethylphenyl)-2-((3-((3-(4-methyl-1-piperazinyl)propyl)oxy)phenyl)amino)-pyrimido[5′,4′:5,6]pyrimido[1,2-a]benzimidazol-5(6H)-one]
- IC50 [1]: < 1000 nM

Compound: Cc1cccc(C)c1-n1c(=O)c2cnc(Nc3ccc(N4CCN(C)CC4)c(Cl)c3)nc2n2c3ccccc3nc12 [No. 40, 2-((3-chloro-4-(4-methyl-1-piperazinyl)phenyl)-amino)-6-(2,6-dimethylphenyl)pyrimido[5′,4′:5,6]-pyrimido[1,2-a]benzimidazol-5(6H)-one]
- IC50 [1]: < 1000 nM

Compound: Cc1cccc(C)c1-n1c(=O)c2cnc(Nc3ccc(N4CCN(C(C)C)CC4)c(Cl)c3)nc2n2c3ccccc3nc12 [No. 41, 2-((3-chloro-4-(4-(1-methylethyl)-1-piperazinyl)-phenyl)amino)-6-(2,6-dimethylphenyl)-pyrimido[5′,4′:5,6]pyrimido[1,2-a]benzimidazol-5(6H)-one]
- IC50 [1]: < 1000 nM

Compound: Cc1cccc(C)c1-n1c(=O)c2cnc(Nc3ccc(N4CCN(CC5CCCCC5)CC4)cc3)nc2n2c3ccccc3nc12 [No. 42, 2-((4-(4-(cyclohexylmethyl)-1-piperazinyl)phenyl)-amino)-6-(2,6-dimethylphenyl)pyrimido[5′,4′:5,6]-pyrimido[1,2-a]benzimidazol-5(6H)-one]
- IC50 [1]: < 1000 nM

Compound: COc1cc(Nc2ncc3c(=O)n(-c4c(C)cccc4C)c4nc5ccccc5n4c3n2)ccc1OCCNC(C)C [No. 43, 6-(2,6-dimethylphenyl)-2-((4-((2-((1-methylethyl)-amino)ethyl)oxy)-3-(methyloxy)phenyl)amino)-pyrimido[5′,4′:5,6]pyrimido[1,2-a]benzimidazol-5(6H)-one]
- IC50 [1]: < 1000 nM

Compound: Cc1cccc(C)c1-n1c(=O)c2cnc(Nc3ccc(N4CCN(C(C)C)CC4)c(F)c3)nc2n2c3ccccc3nc12 [No. 44, 6-(2,6-dimethylphenyl)-2-((3-fluoro-4-(4-(1-methylethyl)-1-piperazinyl)phenyl)amino)-pyrimido[5′,4′:5,6]pyrimido[1,2-a]benzimidazol-5(6H)-one]
- IC50 [1]: < 1000 nM

Compound: Cc1cccc(C)c1-n1c(=O)c2cnc(Nc3ccc(N4CCN(CCN(C)C)CC4)cc3)nc2n2c3ccccc3nc12 [No. 45, 2-((4-(4-(2-(dimethylamino)ethyl)-1-piperazinyl)-phenyl)amino)-6-(2,6-dimethylphenyl)-pyrimido[5′,4′:5,6]pyrimido[1,2-a]benzimidazol-5(6H)-one]
- IC50 [1]: < 1000 nM

Compound: COc1cc(Nc2ncc3c(=O)n(-c4c(C)cccc4C)c4nc5ccccc5n4c3n2)ccc1N1CCN(C(C)C)CC1 [No. 46, 6-(2,6-dimethylphenyl)-2-((4-(4-(1-methylethyl)-1-piperazinyl)-3-(methyloxy)phenyl)amino)-pyrimido[5′,4′:5,6]pyrimido[1,2-a]benzimidazol-5(6H)-one]
- IC50 [1]: < 1000 nM

Compound: Cc1cccc(C)c1-n1c(=O)c2cnc(Nc3ccc(OCCNC(C)C)c(Cl)c3)nc2n2c3ccccc3nc12 [No. 47, 2-((3-chloro-4-((2-((1-methylethyl)amino)ethyl)oxy)-phenyl)amino)-6-(2,6-dimethylphenyl)-pyrimido[5′,4′:5,6]pyrimido[1,2-a]benzimidazol-5(6H)-one]
- IC50 [1]: < 1000 nM

Compound: Cc1cccc(C)c1-n1c(=O)c2cnc(Nc3cccc(N4CCN(C)CC4)c3)nc2n2c3ccccc3nc12 [No. 48, 6-(2,6-dimethylphenyl)-2-((3-(4-methyl-1-piperazinyl)phenyl)amino)pyrimido[5′,4′:5,6]-pyrimido[1,2-a]benzimidazol-5(6H)-one]
- IC50 [1]: < 1000 nM

Compound: Cc1cccc(C)c1-n1c(=O)c2cnc(Nc3ccc(N4CCN(CCCN(C)C)CC4)cc3)nc2n2c3ccccc3nc12 [No. 49, 2-((4-(4-(3-(dimethylamino)propyl)-1-piperazinyl)-phenyl)amino)-6-(2,6-dimethylphenyl)-pyrimido[5′,4′:5,6]pyrimido[1,2-a]benzimidazol-5(6H)-one]
- IC50 [1]: < 1000 nM

Compound: Cc1cccc(C)c1-n1c(=O)c2cnc(Nc3ccc(N4CCN(CC(N)=O)CC4)cc3)nc2n2c3ccccc3nc12 [No. 50, 2-(4-(4-((6-(2,6-dimethylphenyl)-5-oxo-5,6-dihydropyrimido[5′,4′:5,6]pyrimido[1,2-a]-benzimidazol-2-yl)amino)phenyl)-1-piperazinyl)-acetamide]
- IC50 [1]: < 1000 nM

Compound: Cc1cccc(C)c1-n1c(=O)c2cnc(Nc3ccc(N4CCN(Cc5cccc(Cl)c5)CC4)cc3)nc2n2c3ccccc3nc12 [No. 51, 2-((4-(4-((3-chlorophenyl)methyl)-1-piperazinyl)-phenyl)amino)-6-(2,6-dimethylphenyl)-pyrimido[5′,4′:5,6]pyrimido[1,2-a]benzimidazol-5(6H)-one]
- IC50 [1]: < 1000 nM

Compound: COc1cccc(CN2CCN(c3ccc(Nc4ncc5c(=O)n(-c6c(C)cccc6C)c6nc7ccccc7n6c5n4)cc3)CC2)c1 [No. 52, 6-(2,6-dimethylphenyl)-2-((4-(4-((3-(methyloxy)-phenyl)methyl)-1-piperazinyl)phenyl)amino)-pyrimido[5′,4′:5,6]pyrimido[1,2-a]benzimidazol-5(6H)-one]
- IC50 [1]: < 1000 nM

Compound: Cc1cccc(C)c1-n1c(=O)c2cnc(Nc3ccc(N4CCN(Cc5cccc(C#N)c5)CC4)cc3)nc2n2c3ccccc3nc12 [No. 53, 3-((4-(4-((6-(2,6-dimethylphenyl)-5-oxo-5,6-dihydropyrimido[5′,4′:5,6]pyrimido[1,2-a]-benzimidazol-2-yl)amino)phenyl)-1-piperazinyl)-methyl)benzonitrile]
- IC50 [1]: < 1000 nM

Compound: COCCN1CCN(c2ccc(Nc3ncc4c(=O)n(-c5c(C)cccc5C)c5nc6ccccc6n5c4n3)cc2)CC1 [No. 54, 6-(2,6-dimethylphenyl)-2-((4-(4-(2-(methyloxy)ethyl)-1-piperazinyl)phenyl)amino)pyrimido[5′,4′:5,6]-pyrimido[1,2-a]benzimidazol-5(6H)-one]
- IC50 [1]: < 1000 nM

Compound: COc1cc(Nc2ncc3c(=O)n(-c4c(C)cccc4C)c4nc5ccccc5n4c3n2)ccc1OC[C@H]1CCCN1 [No. 55, 6-(2,6-dimethylphenyl)-2-((3-(methyloxy)4-(((2R)-2-pyrrolidinylmethyl)oxy)phenyl)amino)-pyrimido[5′,4′:5,6]pyrimido[1,2-a]benzimidazol-5(6H)-one]
- IC50 [1]: < 1000 nM
